Measured values taken from patent US20240092750A1, “AQUEOUS FORMULATIONS OF CYTOTOXIC TAXANES WITH CYCLODEXTRIN” (Northwestern University, priority 2022, published 2024).
Entries after “also recorded” stand apart in the source; their conditions may differ.

Legend:
[1] = Aqueous solubility tests in milliQ water or dPBS
Method: Solubility Tests: To verify ODDA-PTX aqueous solubility, characterization methods in milliQ water or dPBS were performed.

Tubulin protein = biological target: T1, Tubulin protein (Sus scrofa, UniProt P02550+P02554); assay: In vitro tubulin polymerization assay (turbidity at 350 nm); format: biochemical, porcine; conditions: 20 minutes, 37° C.
T1 construct: Tubulin protein (>99% pure, extracted from porcine brain); from tissue; host or cells: porcine brain
Method: Tubulin protein (>99% pure, extracted from porcine brain) was reconstituted in buffer solution (80 mM PIPES pH 6.9, 2 mM MgCl2, 0.5 mM EGTA, and 10% (v/v) glycerol) to a concentration of 1 mg/mL. 100 μL of this tubulin solution was added per well of a black, 96-well plate, which had been warmed to 37° C. prior to the experiment. This was followed by the addition of either guanosine triphosphate (GTP), Paclitaxel (PTX), or ODDA-PTX-CyD, where the final concentration in each respective well was 1 mM GTP, 10 μM PTX, or 10 μM ODDA-PTX-CyD. Changes in turbidity of the samples were monitored via 96-well plate reader at 350 nm, where a recorded increase in optical density supports the formation of microtubules in solution. Each set of conditions were measured in triplicate and monitored over 20 minutes at 37° C.

T1 sequence (P02554 whole entry): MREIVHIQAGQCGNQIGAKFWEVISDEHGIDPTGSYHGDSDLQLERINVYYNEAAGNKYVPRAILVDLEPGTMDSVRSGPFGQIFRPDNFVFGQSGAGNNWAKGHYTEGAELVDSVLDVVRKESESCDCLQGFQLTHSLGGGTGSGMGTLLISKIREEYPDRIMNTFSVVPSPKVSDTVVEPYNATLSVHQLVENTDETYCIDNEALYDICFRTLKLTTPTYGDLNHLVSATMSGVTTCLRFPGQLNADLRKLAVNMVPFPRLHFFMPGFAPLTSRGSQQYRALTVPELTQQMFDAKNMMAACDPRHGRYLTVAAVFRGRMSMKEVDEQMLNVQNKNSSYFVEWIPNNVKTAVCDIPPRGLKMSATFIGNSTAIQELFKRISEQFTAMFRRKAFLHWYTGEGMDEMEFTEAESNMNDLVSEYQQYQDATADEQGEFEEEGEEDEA
T1 sequence (P02550 whole entry): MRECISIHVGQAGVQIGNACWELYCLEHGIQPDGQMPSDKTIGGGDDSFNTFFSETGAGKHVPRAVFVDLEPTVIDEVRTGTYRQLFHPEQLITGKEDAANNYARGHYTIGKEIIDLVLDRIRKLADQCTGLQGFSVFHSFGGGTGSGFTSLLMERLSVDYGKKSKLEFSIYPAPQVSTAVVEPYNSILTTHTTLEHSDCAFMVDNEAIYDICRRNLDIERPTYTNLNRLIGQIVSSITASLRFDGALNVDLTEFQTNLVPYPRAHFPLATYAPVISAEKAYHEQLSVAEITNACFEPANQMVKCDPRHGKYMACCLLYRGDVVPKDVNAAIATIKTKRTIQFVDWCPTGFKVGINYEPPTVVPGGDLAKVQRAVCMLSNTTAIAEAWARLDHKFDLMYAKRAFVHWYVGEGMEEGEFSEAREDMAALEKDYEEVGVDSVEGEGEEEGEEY

CC(=O)O[C@H]1C(=O)[C@@]2(C)[C@H]([C@H](OC(=O)c3ccccc3)[C@]3(O)C[C@H](OC(=O)[C@H](OC(=O)CCCCCCCCCCCCCCCCC(=O)O)[C@@H](NC(=O)c4ccccc4)c4ccccc4)C(C)=C1C3(C)C)[C@]1(OC(C)=O)CO[C@@H]1C[C@@H]2O [ODDA-PTX, 1,18-octadecandioic acid-paclitaxel]
solubility in water or buffer alone (in words) ([1]; water alone / buffer alone): insolubility; also recorded: not soluble in water alone | aqueous solubility with respect to ODDA-PTX ([1]; with respect to ODDA-PTX): 21 µg/mL

Nc1nc2c(ncn2[C@@H]2O[C@H](COP(=O)(O)OP(=O)(O)OP(=O)(O)O)[C@@H](O)[C@H]2O)c(=O)[nH]1 [GTP, guanosine triphosphate]
change in optical density (microtubule formation) (Tubulin protein; 1 mM GTP): did not portray significant increases in optical density

CC(=O)O[C@H]1C(=O)[C@@]2(C)[C@H]([C@H](OC(=O)c3ccccc3)[C@]3(O)C[C@H](OC(=O)[C@H](O)[C@@H](NC(=O)c4ccccc4)c4ccccc4)C(C)=C1C3(C)C)[C@]1(OC(C)=O)CO[C@@H]1C[C@@H]2O [paclitaxel]
change in optical density (microtubule formation) (Tubulin protein; 10 μM): resulted in the formation of microtubules
